Source: publication PMC11012124, “Synthesis of Novel Triazine-Based Chalcones and 8,9-dihydro-7H-pyrimido[4,5-b][1,4]diazepines as Potential Leads in the Search of Anticancer, Antibacterial and Antifungal Agents” (International Journal of Molecular Sciences, 2024)

Key:
[1] = test system: 60 cancer cell lines; test: NCI-60 one-dose screen (10 μM); type: cell-based; conditions: Homo sapiens; one dose of 10 μM, mean over 60 cancer cell lines; read-out: Mean Growth Percent (MGP)
Excerpt: Additionally, the mean of the growth percentages (MGP) of each compound against all the 60 cancer cell lines is also reported, which is used as one of the selection criteria to continue with tests at five concentration doses.

[2] = test system: CCRF-CEM; test: cells; conditions: Homo sapiens, 48 h; for CC50: read-out: LC50
[3] = test system: HL-60(TB); test: cells; conditions: Homo sapiens, HL-60, 48 h; for CC50: read-out: LC50
[4] = test system: RPMI-8226; test: cells; conditions: Homo sapiens, RPMI-8226, 48 h; for CC50: read-out: LC50
[5] = test system: A549/ATCC; test: cells; conditions: Homo sapiens, A549, 48 h; for CC50: read-out: LC50
[6] = test system: EKVX; test: cells; conditions: Homo sapiens, 48 h; for CC50: read-out: LC50
[7] = test system: HOP-62; test: cells; conditions: Homo sapiens, HOP-62, 48 h; for CC50: read-out: LC50
[8] = test system: NCI-H226; test: cells; conditions: Homo sapiens, NCI-H226, 48 h; for CC50: read-out: LC50
[9] = test system: NCI-H23; test: cells; conditions: Homo sapiens, NCI-H23, 48 h; for CC50: read-out: LC50
[10] = test system: NCI-H322M; test: cells; conditions: Homo sapiens, 48 h; for CC50: read-out: LC50
[11] = test system: NCI-H460; test: cells; conditions: Homo sapiens, NCI-H460, 48 h; for CC50: read-out: LC50
[12] = test system: COLO 205; test: cells; conditions: Homo sapiens, COLO 205, 48 h; for CC50: read-out: LC50
[13] = test system: HCT-116; test: cells; conditions: Homo sapiens, HCT-116, 48 h; for CC50: read-out: LC50
[14] = test system: HCT-15; test: cells; conditions: Homo sapiens, HCT-15, 48 h; for CC50: read-out: LC50
[15] = test system: KM12; test: cells; conditions: Homo sapiens, KM12, 48 h; for CC50: read-out: LC50
[16] = test system: SW-620; test: cells; conditions: Homo sapiens, SW-620, 48 h; for CC50: read-out: LC50
[17] = test system: SF-268; test: cells; conditions: Homo sapiens, SF-268, 48 h; for CC50: read-out: LC50
[18] = test system: SF-295; test: cells; conditions: Homo sapiens, SF-295, 48 h; for CC50: read-out: LC50
[19] = test system: SNB-19; test: cells; conditions: Homo sapiens, SNB-19, 48 h; for CC50: read-out: LC50
[20] = test system: SNB-75; test: cells; conditions: Homo sapiens, SNB-75, 48 h; for CC50: read-out: LC50
[21] = test system: U251; test: cells; conditions: Homo sapiens, U-251, 48 h; for GI50: U251, 48 h; for CC50: read-out: LC50
[22] = test system: MALME-3M; test: cells; conditions: Homo sapiens, 48 h; for CC50: read-out: LC50
[23] = test system: M14; test: cells; conditions: Homo sapiens, M14, 48 h; for CC50: read-out: LC50
[24] = test system: MDA-MB-435; test: cells; conditions: Homo sapiens, MDA-MB-435, 48 h; for CC50: read-out: LC50
[25] = test system: SK-MEL-2; test: cells; conditions: Homo sapiens, SK-MEL-2, 48 h; for CC50: read-out: LC50
[26] = test system: SK-MEL-28; test: cells; conditions: Homo sapiens, SK-MEL-28, 48 h; for CC50: read-out: LC50
[27] = test system: SK-MEL-5; test: cells; conditions: Homo sapiens, SK-MEL-5, 48 h; for CC50: read-out: LC50
[28] = test system: UACC-257; test: cells; conditions: Homo sapiens, UACC-257, 48 h; for CC50: read-out: LC50
[29] = test system: IGROV1; test: cells; conditions: Homo sapiens, IGROV-1, 48 h; for CC50: read-out: LC50
[30] = test system: OVCAR-4; test: cells; conditions: Homo sapiens, OVCAR-4, 48 h; for CC50: read-out: LC50
[31] = test system: OVCAR-5; test: cells; conditions: Homo sapiens, OVCAR-5, 48 h; for CC50: read-out: LC50
[32] = test system: OVCAR-8; test: cells; conditions: Homo sapiens, OVCAR-8, 48 h; for CC50: read-out: LC50
[33] = test system: 786-0; test: cells; conditions: Homo sapiens, 786-0, 48 h; for CC50: read-out: LC50
[34] = test system: ACHN; test: cells; conditions: Homo sapiens, 48 h; for CC50: read-out: LC50
[35] = test system: SN12C; test: cells; conditions: Homo sapiens, 48 h; for CC50: read-out: LC50
[36] = test system: UO-31; test: cells; conditions: Homo sapiens, UO-31, 48 h; for CC50: read-out: LC50
[37] = test system: BT-549; test: cells; conditions: Homo sapiens, BT-549, 48 h; for CC50: read-out: LC50

CN(C)c1nc(NCCNS(=O)(=O)c2ccc(C(=O)/C=C/c3ccc(C(F)(F)F)cc3)cc2)nc(Nc2ccc(F)cc2)n1 [24g]
activity at 10 µM [1]: -27.2%
GI50 [2]: 3.79 µM
CC50 [2]: > 100 µM
GI50 [3]: 3.81 µM
CC50 [3]: 30 µM
GI50 [4]: 3 µM
CC50 [4]: > 100 µM
GI50 [5]: 10 µM
CC50 [5]: 25.4 µM
GI50 [6]: 4.2 µM
CC50 [6]: 15.7 µM
GI50 [7]: 13.6 µM
CC50 [7]: 27.7 µM
GI50 [8]: 7.82 µM
CC50 [8]: 24.7 µM
GI50 [9]: 11.2 µM
CC50 [9]: 24.2 µM
GI50 [10]: 11.6 µM
CC50 [10]: 24.3 µM
GI50 [11]: 4.09 µM
CC50 [11]: 14.9 µM
GI50 [12]: 11.2 µM
CC50 [12]: 24.8 µM
GI50 [13]: 1.68 µM
CC50 [13]: 3.13 µM
GI50 [14]: 3.22 µM
CC50 [14]: 11.9 µM
GI50 [15]: 2.38 µM
CC50 [15]: 6 µM
GI50 [16]: 2.24 µM
CC50 [16]: 5.06 µM
GI50 [17]: 7.71 µM
CC50 [17]: 22.5 µM
GI50 [18]: 11.3 µM
CC50 [18]: 23.5 µM
GI50 [19]: 12 µM
CC50 [19]: 24.3 µM
GI50 [20]: 8.41 µM
CC50 [20]: 22.7 µM
GI50 [21]: 3.42 µM
CC50 [21]: 13 µM
GI50 [22]: 14.2 µM
CC50 [22]: 27.5 µM
GI50 [23]: 3.39 µM
CC50 [23]: 12.9 µM
GI50 [24]: 2.86 µM
CC50 [24]: 8.49 µM
GI50 [25]: 9.45 µM
CC50 [25]: 22.3 µM
GI50 [26]: 10.4 µM
CC50 [26]: 22.2 µM
GI50 [27]: 10.4 µM
CC50 [27]: 22.2 µM
GI50 [28]: 11 µM
CC50 [28]: 25 µM
GI50 [29]: 12.3 µM
CC50 [29]: 24.9 µM
GI50 [30]: 8.78 µM
CC50 [30]: 23.1 µM
GI50 [31]: 12 µM
CC50 [31]: 24.4 µM
GI50 [32]: 12.3 µM
CC50 [32]: 30.6 µM
GI50 [33]: 10.6 µM
CC50 [33]: 22.7 µM
GI50 [34]: 5.08 µM
CC50 [34]: 17.4 µM
GI50 [35]: 6.36 µM
CC50 [35]: 19.9 µM
GI50 [36]: 6.41 µM
CC50 [36]: 19.9 µM
GI50 [37]: 12.7 µM
CC50 [37]: 25.6 µM

COc1cc(C2CC(c3ccc(Cl)cc3)=Nc3c(N)nc(N)nc3N2)ccc1Oc1nc(Nc2ccc(F)cc2)nc(N(C)C)n1 (centres unmarked) [29e]
activity at 10 µM [1]: 40.9%
CC50 [2]: > 100 µM
GI50 [3]: 44.7 µM
CC50 [3]: > 100 µM
GI50 [4]: 26.4 µM
CC50 [4]: > 100 µM
GI50 [5]: > 100 µM
CC50 [5]: > 100 µM
GI50 [6]: > 100 µM
CC50 [6]: > 100 µM
GI50 [7]: > 100 µM
CC50 [7]: > 100 µM
GI50 [8]: > 100 µM
CC50 [8]: > 100 µM
GI50 [9]: > 100 µM
CC50 [9]: > 100 µM
GI50 [10]: > 100 µM
CC50 [10]: > 100 µM
GI50 [11]: 42.3 µM
CC50 [11]: > 100 µM
GI50 [12]: > 100 µM
CC50 [12]: > 100 µM
GI50 [13]: 12.5 µM
CC50 [13]: > 100 µM
GI50 [14]: 76.6 µM
CC50 [14]: > 100 µM
GI50 [15]: 40.1 µM
CC50 [15]: > 100 µM
GI50 [16]: > 100 µM
CC50 [16]: > 100 µM
GI50 [17]: > 100 µM
CC50 [17]: > 100 µM
GI50 [18]: > 100 µM
CC50 [18]: > 100 µM
GI50 [19]: > 100 µM
CC50 [19]: > 100 µM
GI50 [20]: 3.24 µM
CC50 [20]: > 100 µM
GI50 [21]: > 100 µM
CC50 [21]: > 100 µM
GI50 [22]: > 100 µM
CC50 [22]: > 100 µM
GI50 [23]: > 100 µM
CC50 [23]: > 100 µM
GI50 [24]: > 100 µM
CC50 [24]: > 100 µM
GI50 [25]: > 100 µM
CC50 [25]: > 100 µM
GI50 [26]: > 100 µM
CC50 [26]: > 100 µM
GI50 [27]: 17.2 µM
CC50 [27]: > 100 µM
GI50 [28]: > 100 µM
CC50 [28]: > 100 µM
CC50 [29]: > 100 µM
GI50 [30]: 18.9 µM
CC50 [30]: > 100 µM
GI50 [31]: > 100 µM
CC50 [31]: > 100 µM
GI50 [32]: > 100 µM
CC50 [32]: > 100 µM
GI50 [33]: > 100 µM
CC50 [33]: > 100 µM
GI50 [34]: > 100 µM
CC50 [34]: > 100 µM
GI50 [35]: > 100 µM
CC50 [35]: > 100 µM
CC50 [36]: > 100 µM
GI50 [37]: 35.5 µM
CC50 [37]: > 100 µM
